# Counter-ions that a name gives are not always drawn.
# System: ATXN2-luc
# Experiment: MSSR pilot screen: ATXN2-luc luciferase assay (Bright-Glo) in H2 cells, single 10 μM dose
# Type: cell-based, human
# Conditions: H2 cells, single dose (title: 10 μM compound), overnight
row,Structure (SMILES),"SD from mean (ATXN2-luc, Z-score) [SD]"
1,C[C@H]1CC[C@]2(NC1)O[C@H]1C[C@H]3[C@@H]4CC[C@H]5C[C@@H](O[C@@H]6O[C@H](CO)[C@H](O[C@@H]7O[C@H](CO)[C@@H](O)[C@H](O[C@@H]8OC[C@@H](O)[C@H](O)[C@H]8O)[C@H]7O[C@@H]7O[C@H](CO)[C@@H](O)[C@H](O)[C@H]7O)[C@H](O)[C@H]6O)CC[C@]5(C)[C@H]4CC[C@]3(C)[C@H]1[C@@H]2C [TOMATINE],-4.999
2,Cc1c2ccncc2c(C)c2c1[nH]c1ccccc12 [Ellipticine],-3.485
3,COc1ccc(C[C@H]2NC[C@H](O)[C@H]2OC(C)=O)cc1 [Anisomycin],-4.015
4,CC(C)[N+](C)(CCC(C(N)=O)(c1ccccc1)c1ccccc1)C(C)C [ISOPROPAMIDE IODIDE],-4.073
5,COc1cccc2c1C(=O)c1c(O)c3c(c(O)c1C2=O)C[C@@](O)(C(C)=O)C[C@@H]3O[C@H]1C[C@H](N)[C@H](O)[C@H](C)O1 [Daunorubicin hydrochloride],-4.155
6,O[C@H]1[C@H]2c3cc4c(cc3CN3CCC(=C[C@@H]1O)[C@H]23)OCO4 [Lycorine hydrochloride],-2.968
7,CCCCCCc1ccc(O)cc1O.Nc1c2ccccc2nc2ccccc12 [ACRISORCIN],-3.600
8,CC[C@@]1(O)C[C@H](O)c2c(cc3c(c2O)C(=O)c2c(O)ccc(O)c2C3=O)[C@H]1C(=O)OC [RUTILANTINONE],-2.722
9,C[n+]1c2cc(N)ccc2cc2ccc(N)cc21.[Cl-] [ACRIFLAVINIUM HYDROCHLORIDE],-4.148
10,N=C1C=CC(=C(c2ccc(N)cc2)c2ccc(N)cc2)C=C1 [PARAROSANILINE PAMOATE],-2.740
11,C[CH2][Hg][S]c1ccccc1C(=O)[O-].[Na+] [THIMEROSAL],-5.645
12,O=C1C=C2C(=CCOC2O)O1 (stereo not drawn) [PATULIN],-3.651
13,CO[C@H]1C=C[C@@]23c4cc5c(cc4CN(C[C@@H]2O)[C@H]3C1)OCO5 [CRINAMINE],-3.651
14,CC(C)/N=c1\cc2n(-c3ccc(Cl)cc3)c3ccccc3nc-2cc1Nc1ccc(Cl)cc1 [CLOFAZIMINE],-2.792
15,O=C1C=CC(=O)c2ccccc21 [4-NAPHTHOQUINONE],-3.613
16,COC(=O)[C@]1(C)CC[C@]2(C)CC[C@]3(C)C4=CC=C5C(=CC(=O)C(O)=C5C)[C@]4(C)CC[C@@]3(C)[C@@H]2C1 [PRISTIMERIN],-3.883
17,O=C(Nc1ccc([N+](=O)[O-])cc1Cl)c1cc(Cl)ccc1O [Niclosamide],-4.393

row,Structure (SMILES),"SD from mean (ATXN2-luc, Z-score) [SD]"
1,Nc1c2ccccc2nc2ccccc12 [AMINACRINE],-4.103
2,Cl.Cl.O=C1c2c(O)ccc(O)c2C(=O)c2c(NCCNCCO)ccc(NCCNCCO)c21 [MITOXANTHRONE HYDROCHLORIDE],-4.333
3,CC[C@@]1(O)C[C@H](O[C@H]2C[C@H](N(C)C)[C@H](O)[C@H](C)O2)c2c(cc3c(c2O)C(=O)c2c(O)cccc2C3=O)[C@H]1C(=O)OC [AKLAVINE HYDROCHLORIDE],-3.741
4,CC(C)=CCC[C@]1(C)C=Cc2c(O)c3c(c(CC=C(C)C)c2O1)O[C@]12C(=C[C@@H]4C[C@H]1C(C)(C)O[C@@]2(C/C=C(/C)C(=O)O)C4=O)C3=O [GAMBOGIC ACID],-4.841
5,COc1ccc(C[C@H](N)C(=O)N[C@H]2[C@@H](O)[C@H](n3cnc4c(N(C)C)ncnc43)O[C@@H]2CO)cc1 [PUROMYCIN HYDROCHLORIDE],-3.716
6,O=C1c2c(O)ccc(O)c2C(=O)c2c(NCCNCCO)ccc(NCCNCCO)c21 [Mitoxantrone dihydrochloride],-3.666
7,CCN(CC)CCCC(C)Nc1c2ccc(Cl)cc2nc2ccc(OC)cc12 (stereo not drawn) [Quinacrine dihydrochloride dihydrate],-3.270
8,CC(=O)O[C@@H]1C[C@@]2(C)[C@H](c3ccoc3)C[C@H]3O[C@]32[C@]2(C)C(=O)C(O)=C3C(C)(C)C(=O)C=C[C@]3(C)[C@@H]12 [ANTHOTHECOL],-3.020
9,COc1ccc(C[C@H](N)C(=O)N[C@H]2[C@@H](O)[C@H](n3cnc4c(N(C)C)ncnc43)O[C@@H]2CO)cc1 [Puromycin dihydrochloride],-4.723
10,CC(=O)[C@]1(O)Cc2c(O)c3c(c(O)c2[C@@H](O[C@H]2C[C@H](N)[C@H](O)[C@H](C)O2)C1)C(=O)c1ccccc1C3=O [IDARUBICIN HCl],-2.944
11,CC(=O)[C@]1(O)Cc2c(O)c3c(c(O)c2[C@@H](O[C@H]2C[C@H](N)[C@H](O)[C@H](C)O2)C1)C(=O)c1ccccc1C3=O [IDARUBICIN],-2.719
12,Nc1ccn([C@@H]2O[C@H](CO)[C@@H](O)[C@@H]2O)c(=O)n1 [CYTARABINE],-3.681
13,COc1cc([C@@H]2c3cc4c(cc3[C@@H](O[C@@H]3O[C@@H]5CO[C@@H](c6cccs6)O[C@H]5[C@H](O)[C@H]3O)[C@H]3COC(=O)[C@H]23)OCO4)cc(OC)c1O [TENIPOSIDE],-2.832
14,COC(=O)C[C@](O)(CCCC(C)(C)O)C(=O)O[C@@H]1C(OC)=C[C@]23CCCN2CCc2cc4c(cc2[C@H]13)OCO4 [HOMOHARRINGTONINE],-3.117
15,N=c1ccn2c(n1)O[C@H]1[C@H](O)[C@@H](CO)O[C@H]12 [ANCITABINE HYDROCHLORIDE],-3.031
16,COc1cc(/C=C/C(=O)N2CCC=CC2=O)cc(OC)c1OC [Piperlongumine],-2.973

# From paper PMC9356275, “A quantitative high-throughput screen identifies compounds that lower expression of the SCA2-and ALS-associated gene ATXN2” (The Journal of Biological Chemistry, 2022)
